From patent publication US20230151432A1, “KIF18A INHIBITORS FOR TREATMENT OF NEOPLASTIC DISEASES” (AMGEN INC., priority 2020, published 2023)

Legend:
OVCAR-8 tumors = assay: OVCAR-8 Tumor Xenograft Efficacy Study (IP); assay type: in vivo, mouse
Experimental: Animals were dosed IP daily with vehicle alone, C9 (50 or 100 mg/kg), or C12 (25 or 50 mg/kg). […] Tumor volume and body weight assessment performed as described above. After the final dose on day 46, plasma pharmacokinetic analysis was performed as described above except blood was drawn by retro-orbital bleed method.

[1] = system: five KIF18A inhibitor-sensitive cancer cell lines; assay: 6-day cell growth assay with re-plating in drug-free media; assay type: cell-based, human
Experimental: To better understand the durability of response after KIF18A inhibitor treatment, all five KIF18A inhibitor-sensitive cancer cell lines were treated with DMSO or Compound C11 in a 6-day cell growth assay, where the surviving cells were washed, collected, counted, and re-plated in drug-free growth media and cultured for additional 7 to 9 days. MCF-7 cells treated with a CDK 4/6 inhibitor was included as a cytostatic comparator.

[2] = system: human OVCAR-8 HGSOC xenograft model (TP53MUT, BRCA1silenced); assay: OVCAR-8 xenograft efficacy study, oral dosing (Example 4); assay type: in vivo, mouse
Experimental: Female athymic nude mice were injected with 5×10^6 OVCAR-8 cells in 0.1 mL subcutaneously in the right flank. […] Tumor volume and animal body weight measurements were determined twice per week (study start day 25, study end day 47). Tumor measurements, formulas, and regression analysis as described above for FIGS. 5A-5B. Data was plotted using GraphPad Prism software (V7.0.4), tumor volume and body weight data are expressed as means plus or minus standard error of the mean and plotted as a function of time. Statistical significance of observed differences between growth curves were calculated using SLACR package (v.1.0.3).

[3] = system: human OVCAR-3 HGSOC xenograft model (TP53MUT, CCNE1AMP); assay: OVCAR-3 xenograft efficacy study, oral dosing (Example 3); assay type: in vivo, mouse; settings: for tumor regression: day 25 to day 45
Experimental: Female athymic nude mice were injected with 5×10^6 cells in 0.1 mL subcutaneously in the right flank. After tumors were established (average tumor volume of 150 mm^3), animals were randomized into 4 treatment groups (vehicle alone, KIF18A inhibitor at 10, 30, or 100 mg/kg) with 10 animals per group and treated orally once per day (PO, QD) starting on day 25 post-tumor implantation. Tumor measurement was calculated from the length, width and height of tumors measured with a PRO-MAX electronic digital caliper (Japan Micrometer Mfg. Co. LTD). The tumor volume was calculated as [L×W×H] and expressed in mm^3. Tumor volume and animal body weight measurements were determined twice per week (study start day 25, study end day 45). A single mouse was removed from the study (KIF18A inhibitor 30 mg/kg group) due to abdominal distention, a finding likely unrelated to compound.
Tumor Growth Inhibition (TGI) and Tumor Regression formulas.
Data was plotted using GraphPad Prism software (V7.0.4), tumor volume and body weight data are expressed as means plus or minus standard error of the mean and plotted as a function of time. Statistical significance of observed differences between growth curves were calculated using SLACR package (v.1.0.3). Statistical significance for tumor regressions were performed by paired Student's t-Test on the initial and final tumor volumes with significant tumor regression p-values (***p≤0.0001) for all three KIF18A inhibitor treatment groups. KIF18A inhibitor dose 10 mg/kg (81% regression, 5 of 10 tumor-free), 30 mg/kg (98% regression, 8 of 9 tumor-free), and 100 mg/kg (97% regression, 7 of 10 tumor-free).

CC(C)(C)NS(=O)(=O)c1cccc(NC(=O)c2ccc(S(=O)(=O)NC(C)(C)C)cc2N2CCC3(CC2)CC3)c1 [Compound C9, 4-(N-(tert-butyl)sulfamoyl)-N-(3-(N-(tert-butyl)sulfamoyl)phenyl)-2-(6-azaspiro[2.5]octan-6-yl)benzamide]
tumor regression (OVCAR-8 tumors; 50 mg/kg IP once daily for 18 consecutive days): 16% | tumor regression (OVCAR-8 tumors; 100 mg/kg IP once daily for 18 consecutive days): 73%

CC(C)(CO)Nc1ccc(C(=O)Nc2cccc(S(=O)(=O)C3CCCC3)c2)c(N2CCC3(CC2)CC3)n1 [Compound C11, N-(3-(cyclopentylsulfonyl)phenyl)-6-((1-hydroxy-2-methylpropan-2-yl)amino)-2-(6-azaspiro[2.5]octan-6-yl)nicotinamide]
cell growth and colony formation ([1]; 6-day treatment): significant decrease in cell growth and colony formation | cell growth potential after drug withdrawal relative to DMSO control ([1]; re-plated in drug-free media, additional 7 to 9 days): marked reduction cell growth potential

Cc1cc(NC(=O)c2ccc(NS(=O)(=O)CCO)cc2N2CCC3(CC2)CC3)nc(N2CCC(F)(F)CC2)n1 [Compound C14, N-(2-(4,4-Difluoropiperidin-1-yl)-6-methylpyrimidin-4-yl)-4-((2-hydroxyethyl)sulfonamido)-2-(6-azaspiro[2.5]octan-6-yl)benzamide]
tumor growth inhibition (TGI) ([2]; 10 mg/kg PO QD, day 25 to day 47): 57% | tumor-free animals ([2]; 30 mg/kg PO QD): 4 of 10 | tumor regression ([2]; 30 mg/kg PO QD, day 25 to day 47): 86% | tumor-free animals ([2]; 100 mg/kg PO QD): 8 of 10 | tumor regression ([2]; 100 mg/kg PO QD, day 25 to day 47): 98% | tumor-free animals ([3]; 10 mg/kg PO QD): 5 of 10 | tumor regression ([3]; 10 mg/kg PO QD): 81% | tumor-free animals ([3]; 30 mg/kg PO QD): 8 of 9 | tumor regression ([3]; 30 mg/kg PO QD): 98% | tumor-free animals ([3]; 100 mg/kg PO QD): 7 of 10 | tumor regression ([3]; 100 mg/kg PO QD): 97% | durable tumor regressions and cures, share of the animals ([3]; tumor re-growth assessment after cessation of treatment): ≥ 50%
